Test results published in patent publication US20090099243A1, “ORGANIC COMPOUNDS” (priority 2007, published 2009).
Blank lines part the entries; values can stand above or below the compound they belong to.

Experiments:
[1] = system: ethanol self-administration in rats; settings: icv administration; cited from earlier work
[2] = biological target: T1, recombinant human NPY Y2 receptors (Homo sapiens, UniProt P49146); assay: Scintillation proximity [35S]GTPγS binding assay (inhibition of 0.5 nM NPY-stimulated [35S]GTPγS binding); format: biochemical; settings: 10 μM compound, CHO-C4 membranes; for inhibition at 10 µM: read-out: [%] inhibiton at 10 μM
T1 construct: expressed in transfected cells; host or cells: CHO-C4 cells (membrane preparation)
T1 sequence (P49146 1-381): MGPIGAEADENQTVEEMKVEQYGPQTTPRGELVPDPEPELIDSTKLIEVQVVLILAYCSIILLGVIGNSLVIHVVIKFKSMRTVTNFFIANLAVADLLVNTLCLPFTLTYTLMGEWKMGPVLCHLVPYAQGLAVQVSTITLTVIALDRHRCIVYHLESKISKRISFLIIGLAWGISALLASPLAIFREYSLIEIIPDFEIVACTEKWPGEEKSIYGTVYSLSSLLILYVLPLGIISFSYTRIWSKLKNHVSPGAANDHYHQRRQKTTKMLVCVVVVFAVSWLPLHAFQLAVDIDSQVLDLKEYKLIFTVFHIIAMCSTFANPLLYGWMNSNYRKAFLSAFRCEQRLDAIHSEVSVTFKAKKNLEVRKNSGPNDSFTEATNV
Experimental: Preparation of Membranes: CHO—C4 cells expressing recombinant human NPY Y2 receptors were used to prepare membranes for the GTPγS assay. Cells were grown to 80-95% confluency on 15-cm (225 cm^2) tissue culture plates. After aspiration of the culture medium, cells were washed twice with 18 ml ice-cold phosphate-buffered saline (PBS), scraped off and suspended in 3 ml ice-cold PBS in pre-cooled centrifuge tubes. The dishes were rinsed with 2 ml ice-cold PBS per dish and the washings were combined with the PBS cell suspension from above. Cells pooled from 5-7 dishes were centrifuged for 5 min at 10,000 rpm (12,000 g) in a Sorvall RC5B centrifuge using an SS34 rotor at 4° C. The cell pellet was resuspended in 5 ml ice-cold buffer (20 mM HEPES, 10 mM EDTA; pH 7.4) by vortexing (2-5 sec), homogenized using a Polytron (step 4 for 20-30 sec), and ice-cold buffer added to 25 ml. The suspension was centrifuged again for 20 min at 18,000 rpm (39,000 g) at 4° C. and the pellet resuspended in 5 ml ice-cold buffer (20 mM HEPES, 0.1 mM EDTA; pH 7.4) by vortexing (2-5 sec), homogenized with a Polytron (step 4 for 10 sec), and ice-cold buffer added to 25 ml. The suspension was centrifuged a third time for 20 min at 18,000 rpm (39,000 g) at 4° C. The pellet was resuspend in 1 ml ice-cold buffer (20 mM Hepes, 0.1 mM EDTA; pH 7.4) by vortexing (5-8 sec). Two to five resuspended pellets were combined and homogenized using a Polytron (step 4 for 15-25 sec). A small aliquot (20-50 μl) was removed for protein determination by the Coomassie Plus Protein Assay Reagent (Pierce) using BSA as standard. The membrane suspension was aliquoted in pre-cooled (on dry ice) Eppendorf tubes (0.25-1 ml/tube affording approximately 0.5-2 mg of membrane protein/tube). The pellets were frozen and stored at −80° C.
Scintillation proximity [^35S]GTPγS binding assay: Frozen membranes from CHO—C4 cells expressing recombinant human NPY Y2 receptors (2 mg for four 96-well plates) were thawed on ice. Thawed membranes were pipetted into 10 ml of assay buffer (20 mM. HEPES, 10 mM MgCl2, 100 mM NaCl, pH 7.4) and homogenized briefly using a Polytron. The final assay mixture was prepared in 96-well microtiter plates (Isoplate Wallac, Perkin Elmer). The composition of the assay mixtures in a final volume of 250 μl per well was as follows: 20 mM HEPES, 10 mM MgCl2, 100 mM NaCl, pH 7.4, 30 μM GDP, 1 mg/ml BSA (added fresh), 5 μg membrane protein, 1.5 mg Wheatgerm agglutinin SPA beads (Amersham), 0.45 nM [^35S]GTPγS (Amersham, SJ1308, 1000 Ci/mmol, stabilized solution), and the test compounds (agonists and/or antagonists) at the appropriate concentrations. The samples were incubated at room temperature for 90 min by shaking, after which the SPA beads were sedimented by centrifugation in an Eppendorf 5804 centrifuge at 2700 rpm for 10 min at room temperature. After 60 min the plates were counted in a TopCount (Canberra). Basal [^35S]GTPγS binding was measured in the absence of agonist (NPY). Non-specific binding was measured in the presence of excess (10 μM) unlabelled GTPγS (Sigma). Nonspecific binding never exceeded 10% of basal binding and was thus not subtracted from the experimental data. Antagonists were tested for the inhibition of 0.5 nM NPY-stimulated [^35S]GTPγS binding. Antagonist inhibition curves were analyzed by non-linear regression using GraphPad Prism software (Version 4.0, GraphPad Software Inc., CA, USA).
Antagonistic activity of compounds of the present invention was examined by the Scintillation proximity [35S]GTPγS binding assay as described above (inhibition of 0.5 nM NPY-stimulated [^35S]GTPγS binding). The table below represents percentages of inhibition at a concentration of 10 μM.

[3] = system: normal gastric emptying in mice; assay: Normal gastric emptying in mice by Near Infrared FluoRescent (NIRF) imaging; format: in vivo, C57/BI6 mice; settings: imaging 15 minutes after gavage, vehicle control 70%
Experimental: The effect of Example 33, (−)-1-(3,5-Dimethyl-isoxazol-4-yl)-3-{4-[2-(S)-2,5-dioxo-4-phenyl-4-propyl-imidazolidin-1-yl)-acetyl]-3-fluoro-phenyl}-urea, on normal gastric emptying in mice is assessed by means of Near Infrared FluoRescent (NIRF) imaging. The NIRF method is described in detail in the publication by Gremlich et al (J. Mol. Imaging, 2004, 3(4), 303-311). In short, C57/BI6 mice are gavaged 0.2 ml test meal (Isosource Standard meal, Novartis Medical Nutrition, Germany) that contains 7.5 g methylcellulose and 5 g Tentagel fluorescent beads (TentaGel MB-NH2, particle size […], capacity 0.2-0.3 mmol/g; Rapp Polymere, Tubingen, Germany) per 100 ml and immediately returned to their cages. 15 minutes after the gavage mice are anaesthetized using isoflurane and prepared for NIRF imaging. Images from the gastric and intestinal areas are taken and the percentage of food emptied from the stomach is calculated as the ratio of fluorescence measured in the intestines and the stomach. Example 33 was dissolved in 1-methyl-2-pyrrolidon, polyethyleenglycol-300 and 5% dextrose solution (w/v) in the following proportion (v/v): 10%, 30% and 60% respectively and injected intraperitoneally 30 minutes before the administration of the test meal. In the vehicle control group (n=6), 70% of the meal was emptied from the stomach.

Compound: N=C(N)NCCC[C@H](NC(=O)CC1(CC(=O)N2CCN(C3c4ccccc4NC(=O)c4ccccc43)CC2)CCCC1)C(=O)NCCn1c(=O)n(-c2ccccc2)n(-c2ccccc2)c1=O (stereo partly shown) [BIIE0246]
- effect on ethanol self-administration [1]: dose dependently reduced ethanol self-administration

- inhibition at 10 µM [2]: 95%
Compound: CCC[C@@]1(c2ccccc2)NC(=O)N(CC(=O)c2ccc(NC(=O)Nc3c(C)noc3C)cc2F)C1=O [Example 33, (−)-1-(3,5-Dimethyl-isoxazol-4-yl)-3-{4-[2-((S)-2,5-dioxo-4-phenyl-4-propyl-imidazolidin-1-yl)-acetyl]-3-fluoro-phenyl}-urea]
- percentage of the meal emptied from the stomach ([3]; 0.3 mg/kg intraperitoneally 30 minutes before test meal): 80%
- percentage of the meal emptied from the stomach ([3]; 1 mg/kg intraperitoneally 30 minutes before test meal): 81%

- inhibition at 10 µM [2]: 90%
Compound: CCC(CC)C(=O)Nc1ccc(C(=O)CN2C(=O)NC(c3ccccc3)(c3ccccc3)C2=O)c(F)c1 [Example 34, N-{4-[2-(2,5-Dioxo-4,4-diphenyl-imidazolidin-1-yl)-acetyl]-3-fluoro-phenyl}-2-ethyl-butyramide]

- [%] inhibiton at 10 μM [2]: 97%
Compound: CCCC1(c2ccccc2)NC(=O)N(CC(=O)c2ccc(NC(=O)C(CC)CC)cc2)C1=O (single isomer, unassigned; (-)) [Example 31]

- inhibition at 10 µM [2]: 99%
Compound: Cc1ccc(C2(c3ccccc3)NC(=O)N(CC(=O)c3ccc(NC(=O)Cc4c(C)noc4C)cc3)C2=O)cc1 (racemic) [Example 42, (±)-2-(3,5-Dimethyl-isoxazol-4-yl)-N-{4-[2-(2,5-dioxo-4-phenyl-4-p-tolyl-imidazolidin-1-yl)-acetyl]-phenyl}-acetamide]
